Literature values in paper PMC11317875 (Chemical Science, 2024).

Target: LpqY (Mycolicibacterium thermoresistibile, UniProt G7CES0)
Parameters: His-SUMO (N, cleaved yes); made in house; host or cells: E. coli BL21 (DE3)
Conditions: LpqY-azide-trehalose binding; cited from earlier work

Sequence of LpqY (G7CES0 29-471): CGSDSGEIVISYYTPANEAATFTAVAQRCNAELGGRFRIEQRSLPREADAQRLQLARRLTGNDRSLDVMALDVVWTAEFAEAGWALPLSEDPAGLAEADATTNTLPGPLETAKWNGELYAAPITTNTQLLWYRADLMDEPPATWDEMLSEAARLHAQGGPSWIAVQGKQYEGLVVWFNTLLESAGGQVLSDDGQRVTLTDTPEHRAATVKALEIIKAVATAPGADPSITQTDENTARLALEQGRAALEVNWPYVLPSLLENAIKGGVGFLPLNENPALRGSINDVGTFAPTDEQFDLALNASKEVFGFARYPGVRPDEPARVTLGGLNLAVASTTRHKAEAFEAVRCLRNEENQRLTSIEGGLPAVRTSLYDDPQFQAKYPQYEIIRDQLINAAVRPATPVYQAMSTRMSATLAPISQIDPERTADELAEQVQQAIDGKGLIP

| SMILES | Kd |
| --- | --- |
| [N-]=[N+]=N[C@H]1[C@@H](O[C@H]2O[C@H](CO)[C@@H](O)[C@H](O)[C@H]2O)O[C@H](CO)[C@@H](O)[C@@H]1O [2Az-Tre, 2-Deoxy-2-azido-trehalose] | 1916 ± 7.7 µM |
| [N-]=[N+]=N[C@@H]1[C@@H](O)[C@@H](O[C@H]2O[C@H](CO)[C@@H](O)[C@H](O)[C@H]2O)O[C@H](CO)[C@H]1O [3Az-Tre, 3-Deoxy-3-azido-trehalose] | 475 ± 17.2 µM |
| [N-]=[N+]=N[C@H]1[C@H](O)[C@@H](O)[C@@H](O[C@H]2O[C@H](CO)[C@@H](O)[C@H](O)[C@H]2O)O[C@@H]1CO [4Az-Tre, 4-Deoxy-4-azido-trehalose] | 247 ± 7.1 µM |
| [N-]=[N+]=NC[C@H]1O[C@H](O[C@H]2O[C@H](CO)[C@@H](O)[C@H](O)[C@H]2O)[C@H](O)[C@@H](O)[C@@H]1O [6Az-Tre, 6-Deoxy-6-azido-trehalose] | 443 ± 5.3 µM |
